Measurements from PubChem BioAssay AID2060488 (Molecular Pharmacology Branch, DTP, NCI, 2025).

Tested on: 966289-007-R4-J1-PDC complex spheroid viability
Test: Anticancer human tumor 966289-007-R4-J1-PDC patient-derived pancreatic adenocarcinoma cell line growth inhibition [GQUAD]
Details: for IC50: curve of first compound; for viability, T/C: stronger effect = lower value
Method in brief: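 Viability of tumor cells grown as complex spheroids with endothelial and stromal cells, exposed to drug combinations. Top concentration at or near clinical Cmax (else 10 microM), diluted in half-log increments.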

[1] = second compound 0.0316 µM, first compound 0.0316 µM
[2] = second compound 0.0316 µM, first compound 0.1 µM
[3] = second compound 0.0316 µM, first compound 0.316 µM
[4] = second compound 0.0316 µM, first compound 1 µM
[5] = second compound 0.0316 µM, first compound 3.16 µM
[6] = second compound 0.0316 µM, first compound 10 µM
[7] = second compound 0.1 µM, first compound 0.0316 µM
[8] = second compound 0.1 µM, first compound 0.1 µM
[9] = second compound 0.1 µM, first compound 0.316 µM
[10] = second compound 0.1 µM, first compound 1 µM
[11] = second compound 0.1 µM, first compound 3.16 µM
[12] = second compound 0.1 µM, first compound 10 µM
[13] = second compound 0.316 µM, first compound 0.0316 µM
[14] = second compound 0.316 µM, first compound 0.1 µM
[15] = second compound 0.316 µM, first compound 0.316 µM
[16] = second compound 0.316 µM, first compound 1 µM
[17] = second compound 0.316 µM, first compound 3.16 µM
[18] = second compound 0.316 µM, first compound 10 µM
[19] = second compound 1 µM, first compound 0.0316 µM
[20] = second compound 1 µM, first compound 0.1 µM
[21] = second compound 1 µM, first compound 0.316 µM
[22] = second compound 1 µM, first compound 1 µM
[23] = second compound 1 µM, first compound 3.16 µM
[24] = second compound 1 µM, first compound 10 µM
[25] = second compound 3.16 µM, first compound 0.0316 µM
[26] = second compound 3.16 µM, first compound 0.1 µM
[27] = second compound 3.16 µM, first compound 0.316 µM
[28] = second compound 3.16 µM, first compound 1 µM
[29] = second compound 3.16 µM, first compound 3.16 µM
[30] = second compound 3.16 µM, first compound 10 µM
[31] = second compound 10 µM, first compound 0.0316 µM
[32] = second compound 10 µM, first compound 0.1 µM
[33] = second compound 10 µM, first compound 0.316 µM
[34] = second compound 10 µM, first compound 1 µM
[35] = second compound 10 µM, first compound 3.16 µM
[36] = second compound 10 µM, first compound 10 µM
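Note: spheroids exposed to the agents for seven days before readout.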
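Throughout, for viability, T/C: percent viability relative to DMSO vehicle control wells taken as 100%.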

CC1COCCN1c1cc(C2(S(C)(=N)=O)CC2)nc(-c2ccnc3[nH]ccc23)n1 (stereo unspecified) + Cc1cnc(CNC(=O)c2c(=O)c3ccc(N4CCCN(C)CC4)nc3n3c2sc2ccccc23)cn1
IC50 (second compound 0.0316 µM): 2700 nM
IC50 (second compound 0.1 µM): < 31.6 nM
IC50 (second compound 0.316 µM): < 31.6 nM
IC50 (second compound 1 µM): < 31.6 nM
IC50 (second compound 3.16 µM): < 31.6 nM
IC50 (second compound 10 µM): < 31.6 nM
viability, T/C [1]: 119%
viability, T/C [2]: 108%
viability, T/C [3]: 107%
viability, T/C [4]: 44.5%
viability, T/C [5]: 68.7%
viability, T/C [6]: 3.76%
viability, T/C [7]: 42.7%
viability, T/C [8]: 34.2%
viability, T/C [9]: 20.3%
viability, T/C [10]: 11.8%
viability, T/C [11]: 15.3%
viability, T/C [12]: 4.26%
viability, T/C [13]: 16.7%
viability, T/C [14]: 13.1%
viability, T/C [15]: 12.2%
viability, T/C [16]: 8.4%
viability, T/C [17]: 11.7%
viability, T/C [18]: 3.59%
viability, T/C [19]: 7.28%
viability, T/C [20]: 8.94%
viability, T/C [21]: 8.19%
viability, T/C [22]: 6.87%
viability, T/C [23]: 8.21%
viability, T/C [24]: 2.84%
viability, T/C [25]: 5.74%
viability, T/C [26]: 6.34%
viability, T/C [27]: 6.62%
viability, T/C [28]: 5.33%
viability, T/C [29]: 6.14%
viability, T/C [30]: 2.86%
viability, T/C [31]: 0.15%
viability, T/C [32]: 0.14%
viability, T/C [33]: 0.19%
viability, T/C [34]: 0.18%
viability, T/C [35]: 0.19%
viability, T/C [36]: 0.16%

COc1ccc([C@@H](O)c2cc(-c3ncnc4cc(N5CCOCC5)ccc34)c(F)cc2Cl)nn1 + Cc1cnc(CNC(=O)c2c(=O)c3ccc(N4CCCN(C)CC4)nc3n3c2sc2ccccc23)cn1
IC50 (second compound 0.0316 µM): 826 nM
IC50 (second compound 0.1 µM): < 31.6 nM
IC50 (second compound 0.316 µM): < 31.6 nM
IC50 (second compound 1 µM): < 31.6 nM
IC50 (second compound 3.16 µM): < 31.6 nM
IC50 (second compound 10 µM): < 31.6 nM
viability, T/C [1]: 119%
viability, T/C [2]: 109%
viability, T/C [3]: 107%
viability, T/C [4]: 38.6%
viability, T/C [5]: 36%
viability, T/C [6]: 26%
viability, T/C [7]: 47.7%
viability, T/C [8]: 37.2%
viability, T/C [9]: 21.7%
viability, T/C [10]: 11.2%
viability, T/C [11]: 12.2%
viability, T/C [12]: 13.2%
viability, T/C [13]: 14.1%
viability, T/C [14]: 15%
viability, T/C [15]: 10.7%
viability, T/C [16]: 9.67%
viability, T/C [17]: 12.2%
viability, T/C [18]: 10.4%
viability, T/C [19]: 7.16%
viability, T/C [20]: 7.76%
viability, T/C [21]: 6.22%
viability, T/C [22]: 5.28%
viability, T/C [23]: 7.22%
viability, T/C [24]: 6.81%
viability, T/C [25]: 5.73%
viability, T/C [26]: 5.42%
viability, T/C [27]: 4.82%
viability, T/C [28]: 4.3%
viability, T/C [29]: 6.69%
viability, T/C [30]: 6.78%
viability, T/C [31]: 0.11%
viability, T/C [32]: 0.13%
viability, T/C [33]: 0.3%
viability, T/C [34]: 0.15%
viability, T/C [35]: 0.42%
viability, T/C [36]: 0.15%

O=C(c1cc(Cc2n[nH]c(=O)c3ccccc23)ccc1F)N1CCN(C(=O)C2CC2)CC1 + Cc1cnc(CNC(=O)c2c(=O)c3ccc(N4CCCN(C)CC4)nc3n3c2sc2ccccc23)cn1
IC50 (second compound 0.0316 µM): 1380 nM
IC50 (second compound 0.1 µM): < 31.6 nM
IC50 (second compound 0.316 µM): < 31.6 nM
IC50 (second compound 1 µM): < 31.6 nM
IC50 (second compound 3.16 µM): < 31.6 nM
IC50 (second compound 10 µM): < 31.6 nM
viability, T/C [1]: 113%
viability, T/C [2]: 106%
viability, T/C [3]: 98.9%
viability, T/C [4]: 58.9%
viability, T/C [5]: 23.3%
viability, T/C [6]: 4.08%
viability, T/C [7]: 33.8%
viability, T/C [8]: 26%
viability, T/C [9]: 22%
viability, T/C [10]: 17.1%
viability, T/C [11]: 8.17%
viability, T/C [12]: 4.33%
viability, T/C [13]: 13.5%
viability, T/C [14]: 11%
viability, T/C [15]: 9.09%
viability, T/C [16]: 7.84%
viability, T/C [17]: 3.87%
viability, T/C [18]: 2.13%
viability, T/C [19]: 5.15%
viability, T/C [20]: 5.03%
viability, T/C [21]: 4.87%
viability, T/C [22]: 4.62%
viability, T/C [23]: 3%
viability, T/C [24]: 1.77%
viability, T/C [25]: 3.25%
viability, T/C [26]: 5.08%
viability, T/C [27]: 3.5%
viability, T/C [28]: 2.42%
viability, T/C [29]: 0.47%
viability, T/C [30]: 0.13%
viability, T/C [31]: 0.11%
viability, T/C [32]: 0.34%
viability, T/C [33]: 0.18%
viability, T/C [34]: 0.14%
viability, T/C [35]: 0.16%
viability, T/C [36]: 0.58%
